Where “and” joins values, the source holds several entries; their conditions need not be identical. Equal entries are not always repeated. Inconclusive results are not listed. Calls of active or inactive are those of the source.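 The calls were made as follows: active = fitted half-maximal concentration of signal decrease at or below twice the sample's top tested concentration; inconclusive = flat curve between -70 and -30 percent, or poor fit; inactive = flat within 30 percent, signal rise, or potency above limit.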
Each molecule was assayed against T. gondii ME49Luc in IFN-y HeLa, luciferase, 72 h (assay: inhibitors of Toxoplasma growth in IFN-γ-primed HeLa – cell-based, ME49Luc, luciferase, 72 h, dose response (AID 1259418)).

**Q.** With `C[C@H](CO)N1C[C@H](C)[C@H](CN(C)Cc2ccc(Cl)c(Cl)c2)Oc2c(NS(=O)(=O)c3ccc(F)cc3)cccc2C1=O` as the molecule, how does the AC50 read?
**A.** 20.9 µM

**Q.** With `N#C[C@@H]1N[C@H](CO)[C@H]1c1ccc(-c2cccc(F)c2)cc1` as the molecule, how does the AC50 read?
**A.** 26.3 µM

**Q.** With `OC[C@H]1[C@@H](c2ccc(C#Cc3ccccc3F)cc2)[C@@H]2CN(CC3CCOCC3)CCCCN12` as the molecule, how does the AC50 read?
**A.** 15.9 µM

**Q.** Which AC50 does the source give for `Cc1c(Cl)cccc1NC(=O)CN1CCC2(CC1)N=C(c1cccc(F)c1)C(=O)N2` here?
**A.** > 39 µM (inactive)

**Q.** `Cc1cccc(OCC(=O)N2CCC3(CC2)Nc2ccc(Cl)cc2-n2cccc23)c1` was tested. Which AC50 did it give?
**A.** 8.26 µM and 14.9 µM

**Q.** Which AC50 does the source give for `CCOc1ccccc1N(Cc1nc(-c2ccccc2OC)oc1C)S(=O)(=O)c1cccs1` here?
**A.** 12.2 µM

**Q.** How did the AC50 turn out when `CCN1CCN(Cc2ccc(Nc3nc(-c4ccc(OC)cc4)nc4ccccc34)cc2)CC1` was run?
**A.** 11.3 µM and 12.5 µM

**Q.** With `COCCCNc1nc(-c2ccc(OC)cc2)nc2ccccc12` as the molecule, how does the AC50 read?
**A.** 20 µM

**Q.** `CN(C)CCCNC(=O)c1cc(-c2cnc(-c3ccccc3)nc2)cn1C` was tested. Which AC50 did it give?
**A.** 30.1 µM

**Q.** For `CCCN1CCN(CCCNc2nc(-c3ccc(OC)cc3)nc3ccccc23)CC1`, which AC50 is on record?
**A.** 21.9 µM

**Q.** Which AC50 does the source give for `CN(C)CCNC(=O)c1c2c(NCc3cccnc3)ncnc2n2ccccc12` here?
**A.** 32.4 µM

**Q.** `CCCNC(=O)[C@H]1[C@H](CO)[C@H]2Cn3c(ccc(C4=CCCCC4)c3=O)[C@H]2N1Cc1ccccc1F` was tested. Which AC50 did it give?
**A.** 8.99 µM

**Q.** How did the AC50 turn out when `O=C(NCc1cncc2c1CCN(Cc1cccc(F)c1)C2)C1CC1` was run?
**A.** 8.45 µM

**Q.** With `CCOc1ccccc1-c1nc(CN(c2ccccc2OC)S(=O)(=O)c2ccccc2C)c(C)o1` as the molecule, how does the AC50 read?
**A.** 8.83 µM

**Q.** How did the AC50 turn out when `CCOc1ccc(-c2nc3c(s2)CN(S(=O)(=O)c2cccc(F)c2)CC3)cc1` was run?
**A.** > 39 µM (inactive)

**Q.** With `Cc1cc(C)cc(S(=O)(=O)N2CCC[C@@H]2C(=O)NCCc2csc(-c3ccccc3)n2)c1` as the molecule, how does the AC50 read?
**A.** 13.5 µM

**Q.** Which AC50 does the source give for `OC[C@@H]1[C@@H](c2ccc(-c3cccc(F)c3)cc2)[C@@H]2CN(Cc3cncnc3)CCCCN12` here?
**A.** 36.1 µM

**Q.** How did the AC50 turn out when `COc1ccccc1NS(=O)(=O)c1cc2c3c(c1)CCC(=O)N3CCC2` was run?
**A.** 25.4 µM

**Q.** With `Cc1ccc(-c2nc(CN3CCN(C(=O)NC4CCCC4)CC3)c(C)o2)cc1` as the molecule, how does the AC50 read?
**A.** 20.9 µM

**Q.** Which AC50 does the source give for `CS(=O)(=O)N1CC(=O)N2[C@H](C1)[C@@H](c1ccc(C#Cc3ccc(F)cc3)cc1)[C@@H]2CO` here?
**A.** 22.8 µM

**Q.** Which AC50 does the source give for `Cc1ccccc1-c1ccc([C@@H]2[C@@H](CO)N3CCCCN(S(=O)(=O)Cc4ccccc4)C[C@H]23)cc1` here?
**A.** 19.8 µM

**Q.** `Cc1ccc(S(=O)(=O)N2CCC3(CC2)NCCN=C3NCc2cc(F)cc(F)c2)cc1C` was tested. Which AC50 did it give?
**A.** 30.1 µM

**Q.** Which AC50 does the source give for `O=C(CCC1N=C2c3ccccc3N=C(SCc3ccc(F)cc3)N2C1=O)NCCc1ccccc1` (stereo not given) here?
**A.** 37.8 µM

**Q.** For `CC(C)NC(=O)N1CC(=O)N2[C@@H](CO)[C@H](c3ccc(/C=C/c4ccccc4)cc3)[C@@H]2C1`, which AC50 is on record?
**A.** 16.8 µM

**Q.** With `CC(C)Cc1ccc(S(=O)(=O)N2CCC3(CC2)NCCN=C3NCc2cccc(F)c2)cc1` as the molecule, how does the AC50 read?
**A.** 5.25 µM

**Q.** How did the AC50 turn out when `COc1ccc(-c2ccc3nc(CO)[nH]c3c2)cc1Cl` was run?
**A.** 16.2 µM

**Q.** With `Oc1cccc(-c2nccn2-c2cccc(-c3ccn[nH]3)c2)c1` as the molecule, how does the AC50 read?
**A.** 22.7 µM

**Q.** For `O=C(O)CC1CCC(c2ccc(-c3ccc(Nc4ccc(C(F)(F)F)nc4)cn3)cc2)CC1` (stereo not given), which AC50 is on record?
**A.** 19 µM

**Q.** Which AC50 does the source give for `CC(C)CC#Cc1ccc([C@H]2[C@@H](CO)N3C(=O)CN(C(=O)Nc4cc(F)ccc4F)C[C@H]23)cc1` here?
**A.** 22.1 µM and 15.7 µM

**Q.** `O=C(CCCCCn1c(=S)[nH]c2ccccc2c1=O)N1CCC(O)(c2cccc(C(F)(F)F)c2)CC1` was tested. Which AC50 did it give?
**A.** 26.9 µM

**Q.** With `O=C(CC1Nc2c3ccccc3nc(=S)n2C1=O)NCc1ccccc1Cl` (stereo not given) as the molecule, how does the AC50 read?
**A.** 28.7 µM

**Q.** `Cn1c2ccccc2c2c1cc(C(=O)N1CCN(c3ccncc3)CC1)n2S(C)(=O)=O` was tested. Which AC50 did it give?
**A.** 26.6 µM

**Q.** For `C[C@@H]1CN([C@@H](C)CO)C(=O)c2cccc(NC(=O)NC3CCCCC3)c2O[C@H]1CN(C)Cc1ccc(C(F)(F)F)cc1`, which AC50 is on record?
**A.** 16 µM

**Q.** For `Clc1cncc(OC[C@H]2CO[C@@H]3CN(Cc4cccs4)C[C@@H]23)c1`, which AC50 is on record?
**A.** 15.3 µM

**Q.** For `O=C(NC1CCCC1)N1CC(=O)N2[C@H](CO)[C@H](c3ccc(C4=CCCCC4)cc3)[C@@H]2C1`, which AC50 is on record?
**A.** 35.3 µM

**Q.** `COc1ccc(-c2nc(CN(c3ccccc3OC)S(=O)(=O)c3ccccc3)c(C)o2)cc1OC` was tested. Which AC50 did it give?
**A.** 3.59 µM

**Q.** For `CCOc1ccccc1N(Cc1nc(-c2ccccc2)oc1C)S(=O)(=O)c1ccccc1`, which AC50 is on record?
**A.** 7.75 µM

**Q.** With `COc1cccc(-c2nc(Cn3c(=O)c4c(C)cc(C)nc4n(-c4ccccc4)c3=O)c(C)o2)c1OC` as the molecule, how does the AC50 read?
**A.** > 39 µM (inactive)

**Q.** Which AC50 does the source give for `CCc1c(C)sc2c1CCN(Cc1nc(-c3cc(C)ccc3C)oc1C)C2c1ccccc1` (stereo not given) here?
**A.** 9.45 µM

**Q.** With `O=C(C[C@H]1CC[C@H]2[C@@H](COC[C@H](O)CN2Cc2ccc(Oc3ccccc3)cc2)O1)N1CCN(c2ccccc2)CC1` as the molecule, how does the AC50 read?
**A.** 12.1 µM and 21.2 µM

**Q.** For `Cc1cc(C)cc(S(=O)(=O)N2CCC3(CC2)NCCN=C3NCc2ccc(C(F)(F)F)cc2)c1`, which AC50 is on record?
**A.** 6.65 µM

**Q.** With `COc1cccc(S(=O)(=O)N2CCCCN3[C@H](CO)[C@@H](c4ccc(C#CCC(C)C)cc4)[C@@H]3C2)c1` as the molecule, how does the AC50 read?
**A.** 5.58 µM and 10.4 µM and 10.5 µM

**Q.** `O=C(c1ccc(F)cc1)N1CC(=O)N2[C@@H](CO)[C@@H](c3ccc(C#CCC4CCCC4)cc3)[C@@H]2C1` was tested. Which AC50 did it give?
**A.** 23.5 µM

**Q.** With `O=C(c1cccc(F)c1)N1CCCCN2[C@H](C1)[C@@H](c1ccc(C#CC3(O)CCCC3)cc1)[C@@H]2CO` as the molecule, how does the AC50 read?
**A.** 11 µM and 29.4 µM

**Q.** `CN1c2ccc(-c3ccccc3)cc2[C@@H]2[C@@H](CCN2C(=O)CC2CC2)[C@@H]1CO` was tested. Which AC50 did it give?
**A.** 18.5 µM and > 39 µM (inactive)
